# According to US20240383923A1, “HETEROARYL DERIVATIVE AND USE THEREOF” (VORONOI INC., priority 2022, published 2024):
# Key:
# N-87 cancer cells = assay: Inhibition of N-87 cell proliferation (CellTiter-Glo); assay type: cell-based; details: N-87 cells, 72 hours
# Procedure: N-87 cancer cells were cultured by using RPMI-1640 medium with 10% FBS. The N-87 cancer cells were seeded to a white clear bottom 96 well plate (Corning) at 5,000 cells per well 24 hours before the […] cancer cells were treated with Example Compounds. Example Compounds were diluted in dimethylsulfoxide (5-fold diluted, total 11 concentrations) and 0.5 μL each was injected so that the final concentration was […]. For the measurement of living cells, the cells were stored at room temperature for 10 minutes using the CellTiter-Glo cell viability reagent (Promega) after 72 hours after the treatment of Example Compounds, and then the luminescence intensity was measured using the reader (SynergyNeo, Biotek).
# The result value was calculated as a cell growth rate (%) compared to a control group. Graphs were plotted and GI50 values were calculated using the GraphPad Prism version 8.0 program, and the results are shown in Table 18 below.
# BT-474 cancer cells = assay: Inhibition of BT-474 cell proliferation (CellTiter-Glo); assay type: cell-based; details: Homo sapiens, BT-474 cells, 120 hours
# Method in brief: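 BT-474 cells in RPMI-1640 with 20% FBS, seeded 48 h before dosing with 11 three-fold dilutions (final 0.2 nM to 10 μM). Viability read by CellTiter-Glo luminescence 120 h after treatment, triplicate tests. GI50 derived from growth rate (%) versus control.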
SMILES,GI50 (N-87 cancer cells) [nM],GI50 (BT-474 cancer cells) [nM]
"C=CC(=O)N1CCC(Nc2cc3c(Nc4cc(C)c(Oc5ccn6ncnc6c5)cc4OC)ncnc3cc2OC)CC1 [Example 1, 1-(4-((4-((4-([1,2,4]triazolo[1,5-a]pyridin-7-yloxy)-2-methoxy-5-methylphenyl)amino)-7-methoxyquinazolin-6-yl)amino)piperidin-1-yl)prop-2-en-1-one]",≤ 50,≤ 50
"C=CC(=O)N1CCC(Nc2cc3c(Nc4cc(Cl)c(Oc5ccccn5)cc4OC)ncnc3cc2OC)CC1 [Example 3, 1-(4-((4-((5-chloro-2-methoxy-4-(pyridin-2-yloxy)phenyl)amino)-7-methoxyquinazolin-6-yl)amino)piperidin-1-yl)prop-2-en-1-one]",≤ 50,≤ 50
"C=CC(=O)N1CCC(Oc2cc3c(Nc4cc(Cl)c(Oc5ccn6ncnc6c5)cc4OC)ncnc3cc2OC)CC1 [Example 5, 1-(4-((4-((4-([1,2,4]triazolo[1,5-a]pyridin-7-yloxy)-5-chloro-2-methoxyphenyl)amino)-7-methoxyquinazolin-6-yl)oxy)piperidin-1-yl)prop-2-en-1-one]",≤ 50,≤ 50
"C=CC(=O)N1CCC(Oc2cc3c(Nc4cc(Cl)c(Oc5cccc(F)c5)cc4OC)ncnc3cc2OC)C(F)C1 (stereo not shown) [Example 6, 1-(4-((4-((5-chloro-4-(3-fluorophenoxy)-2-methoxyphenyl)amino)-7-methoxyquinazolin-6-yl)oxy)-3-fluoropiperidin-1-yl)prop-2-en-1-one]",≤ 50,≤ 50
"C=CC(=O)N1CCC(Oc2cc3c(Nc4ccc(Oc5cccc(F)c5)cc4OC)ncnc3cc2OC)CC1 [Example 7, 1-(4-((4-((4-(3-fluorophenoxy)-2-methoxyphenyl)amino)-7-methoxyquinazolin-6-yl)oxy)piperidin-1-yl)prop-2-en-1-one]",≤ 50,≤ 50
"C=CC(=O)N1CCC(Oc2cc3c(Nc4ccc(Oc5ccn(-c6cnc(C)c(F)c6)n5)cc4OC)ncnc3cc2OC)CC1 [Example 9, 1-(4-((4-((4-((1-(5-fluoro-6-methylpyridin-3-yl)-1H-pyrazol-3-yl)oxy)-2-methoxyphenyl)amino)-7-methoxyquinazolin-6-yl)oxy)piperidin-1-yl)prop-2-en-1-one]",≤ 50,50 to 100
"C=CC(=O)N1CCC(Oc2cc(OC)cc3ncnc(Nc4cc(C)c(Oc5ccn6ncnc6c5)cc4OC)c23)C(F)(F)C1 (stereo not shown) [Example 15, 1-(4-((4-((4-([1,2,4]triazolo[1,5-a]pyridin-7-yloxy)-2-methoxy-5-methylphenyl)amino)-7-methoxyquinazolin-5-yl)oxy)-3,3-difluoropiperidin-1-yl)prop-2-en-1-one]",≤ 50,≤ 50
"C=CC(=O)N1CCC(F)(F)C(Oc2cc(OC)cc3ncnc(Nc4cc(C)c(Oc5ccn6ncnc6c5)cc4OC)c23)C1 (stereo not shown) [Example 16, 1-(3-((4-((4-([1,2,4]triazolo[1,5-a]pyridin-7-yloxy)-2-methoxy-5-methylphenyl)amino)-7-methoxyquinazolin-5-yl)oxy)-4,4-difluoropiperidin-1-yl)prop-2-en-1-one]",≤ 50,≤ 50
"C=CC(=O)Nc1cc2c(Nc3cc(Cl)c(Oc4ccccn4)cc3OC)ncnc2cc1OC [Example 24, N-(4-((5-chloro-2-methoxy-4-(pyridin-2-yloxy)phenyl)amino)-7-methoxyquinazolin-6-yl)acrylamide]",≤ 50,≤ 50
"COc1cc2ncnc(Nc3cc(Cl)c(Oc4cccc(F)c4)cc3OC)c2cc1NC(=O)/C=C/[C@H]1CCCN1 [Example 31, (R,E)-N-(4-((5-chloro-4-(3-fluorophenoxy)-2-methoxyphenyl)amino)-7-methoxyquinazolin-6-yl)-3-(pyrrolidin-2-yl)acrylamide]",≤ 50,≤ 50
"COc1cc2ncnc(Nc3cc(Cl)c(Oc4ccn5ncnc5c4)cc3OC)c2cc1NC(=O)/C=C/[C@H]1CCCN1C [Example 32, (R,E)-N-(4-((4-([1,2,4]triazolo[1,5-a]pyridin-7-yloxy)-5-chloro-2-methoxyphenyl)amino)-7-methoxyquinazolin-6-yl)-3-(1-methylpyrrolidin-2-yl)acrylamide]",≤ 50,≤ 50
"COc1cc2ncnc(Nc3cc(C)c(Oc4ccn5ncnc5c4)cc3OC)c2cc1NC(=O)/C(F)=C\[C@H]1CCCN1C [Example 41, (R,E)-N-(4-((4-([1,2,4]triazolo[1,5-a]pyridin-7-yloxy)-2-methoxy-5-methylphenyl)amino)-7-methoxyquinazolin-6-yl)-2-fluoro-3-(1-methylpyrrolidin-2-yl)acrylamide]",≤ 50,≤ 50
"COc1cc2ncnc(Nc3ccc(Oc4ccn5ncnc5c4)cc3OC)c2cc1NC(=O)/C(F)=C\[C@H]1CCCN1C [Example 46, (R,E)-N-(4-((4-([1,2,4]triazolo[1,5-a]pyridin-7-yloxy)-2-methoxyphenyl)amino)-7-methoxyquinazolin-6-yl)-2-fluoro-3-(1-methylpyrrolidin-2-yl)acrylamide]",≤ 50,≤ 50
"COc1cc2ncnc(Nc3cc(Cl)c(Oc4ccn5ncnc5c4)cc3OC)c2cc1NC(=O)/C(F)=C\[C@H]1CCCN1C [Example 51, (R,E)-N-(4-((4-([1,2,4]triazolo[1,5-a]pyridin-7-yloxy)-5-chloro-2-methoxyphenyl)amino)-7-methoxyquinazolin-6-yl)-2-fluoro-3-(1-methylpyrrolidin-2-yl)acrylamide]",≤ 50,≤ 50
"CCN1CCC[C@@H]1/C=C(/F)C(=O)Nc1cc2c(Nc3cc(C)c(Oc4ccn5ncnc5c4)cc3OC)ncnc2cc1OC [Example 52, (R,E)-N-(4-((4-([1,2,4]triazolo[1,5-a]pyridin-7-yloxy)-2-methoxy-5-methylphenyl)amino)-7-methoxyquinazolin-6-yl)-3-(1-ethylpyrrolidin-2-yl)-2-fluoroacrylamide]",≤ 50,≤ 50
"COc1cc2ncnc(Nc3cc(C)c(Oc4ccc5ncn(C)c5c4)cc3OC)c2cc1NC(=O)/C(F)=C\[C@H]1CCCN1C [Example 55, (R,E)-2-fluoro-N-(7-methoxy-4-((2-methoxy-5-methyl-4-((1-methyl-1H-benzo[d]imidazol-6-yl)oxy)phenyl)amino)quinazolin-6-yl)-3-(1-methylpyrrolidin-2-yl)acrylamide]",≤ 50,≤ 50
"COc1cc2ncnc(Nc3cc(C)c(Oc4ccccc4)cc3OC)c2cc1NC(=O)/C(F)=C\[C@H]1CCCN1C [Example 74, (R,E)-2-fluoro-N-(7-methoxy-4-((2-methoxy-5-methyl-4-phenoxyphenyl)amino)quinazolin-6-yl)-3-(1-methylpyrrolidin-2-yl)acrylamide]",≤ 50,≤ 50
"COc1cc2ncnc(Nc3cc(C)c(Oc4ccn5ccnc5c4)cc3OC)c2cc1NC(=O)/C(F)=C/[C@H]1CCCN1C [Example 76, (R,Z)-2-fluoro-N-(4-((4-(imidazo[1,2-a]pyridin-7-yloxy)-2-methoxy-5-methylphenyl)amino)-7-methoxyquinazolin-6-yl)-3-(1-methylpyrrolidin-2-yl)acrylamide]",≤ 50,≤ 50
"COc1cc(Oc2ccn3ncnc3c2)c(C)cc1Nc1ncnc2ccc(NC(=O)/C(F)=C\[C@H]3CCCN3C)cc12 [Example 91, (R,E)-N-(4-((4-([1,2,4]triazolo[1,5-a]pyridin-7-yloxy)-2-methoxy-5-methylphenyl)amino)quinazolin-6-yl)-2-fluoro-3-(1-methylpyrrolidin-2-yl)acrylamide]",≤ 50,≤ 50
"CCOc1cc2ncnc(Nc3cc(C)c(Oc4ccn5ncnc5c4)cc3OC)c2cc1NC(=O)/C(F)=C\[C@H]1CCCN1C [Example 93, (R,E)-N-(4-((4-([1,2,4]triazolo[1,5-a]pyridin-7-yloxy)-2-methoxy-5-methylphenyl)amino)-7-ethoxyquinazolin-6-yl)-2-fluoro-3-(1-methylpyrrolidin-2-yl)acrylamide]",≤ 50,≤ 50
"COCCOc1cc2ncnc(Nc3cc(C)c(Oc4ccn5ncnc5c4)cc3OC)c2cc1NC(=O)/C(F)=C/[C@H]1CCCN1C [Example 95, (R,Z)—N-(4-((4-([1,2,4]triazolo[1,5-a]pyridin-7-yloxy)-2-methoxy-5-methylphenyl)amino)-7-(2-methoxyethoxy)quinazolin-6-yl)-2-fluoro-3-(1-methylpyrrolidin-2-yl)acrylamide]",≤ 50,≤ 50
"CCOc1cc(Oc2ccn3ncnc3c2)c(C)cc1Nc1ncnc2cc(OC)c(NC(=O)/C(F)=C\[C@H]3CCCN3C)cc12 [Example 104, (R,E)-N-(4-((4-([1,2,4]triazolo[1,5-a]pyridin-7-yloxy)-2-ethoxy-5-methylphenyl)amino)-7-methoxyquinazolin-6-yl)-2-fluoro-3-(1-methylpyrrolidin-2-yl)acrylamide]",≤ 50,≤ 50
"COc1cc2ncnc(Nc3cc(C)c(Oc4ccn5ncnc5c4)cc3OC)c2cc1NC(=O)/C(F)=C\[C@H]1CCCN1 [Example 134, (R,E)-N-(4-((4-([1,2,4]triazolo[1,5-a]pyridin-7-yloxy)-2-methoxy-5-methylphenyl)amino)-7-methoxyquinazolin-6-yl)-2-fluoro-3-(pyrrolidin-2-yl)acrylamide]",≤ 50,≤ 50
